pIC50: −log10 of the molar value. Values after ≈ are worked out from the molar mass of the structure shown. Where two headings read alike, the source gives them in different places.
Columns and labels:
C. neo = experiment: In vitro antifungal assay; format: cell-based; details: Cryptococcus neoformans, read-out: MIC80 C. neo
MRC-5 cells = experiment: Cytotoxicity assay on normal cells; format: cell-based, human; details: read-out: IC50 on MRC-5 cell lines
C. alb (SC5314) = experiment: In vitro antifungal assay; format: cell-based; details: Candida albicans, SC5314, read-out: MIC80 C. alb (SC5314)
Strain 901 = experiment: Antifungal activity against fluconazole-resistant strain; format: cell-based; details: Candida albicans, 901, read-out: MIC80 Strain 901
Strain 632 = experiment: as above; format: cell-based; details: Candida albicans, 632, read-out: MIC80 Strain 632
Strain 17# = experiment: as above; format: cell-based; details: Candida albicans, read-out: MIC80 Strain 17#
Strain CaR = experiment: as above; format: cell-based; details: Candida albicans, read-out: MIC80 Strain CaR
Strain 904 = experiment: as above; format: cell-based, Candida albicans; details: Candida albicans, 904, read-out: MIC80 Strain 904
Plasma stability assay = details: male, SD, rat
[1] = Metabolic stability assay of liver microsomes; format: in vitro ADME; details: mouse
[2] = tested on: ERG11 and CDR1 of azole-resistant strain 904; experiment: RT-PCR expression of resistant genes ERG11 and CDR1; format: cell-based, Candida albicans; details: 0.25 μg mL^−1, strain 904, RT-PCR
[3] = tested on: C. alb (5314),C. par, C. gla, C. kru and C. neo; experiment: In vitro antifungal assay, span over the five tested species; format: cell-based; details: range over C. alb (5314)

half-life (Plasma stability assay)	remaining at 3 h (Plasma stability assay)	half-life [1]	microsomal CLint [1]	SMILES	MIC80 (C. neo)	pIC50 (MRC-5 cells; Homo sapiens, MRC5, 72 h)	MIC80 (C. alb (SC5314))	MIC80 (Strain 901)	MIC80 (Strain 632)	MIC80 (Strain 17#)	MIC80 (Strain CaR)	MIC80 (Strain 904)	Expression of ERG11 and CDR1 [2]	MIC80 / MIC span over the five tested fungi [3]	pIC50 (MRC-5 cells; 72 hours)
–	–	–	–	O=C(Nc1ccc(C(F)(F)F)cc1)c1ccc(COC(Cn2ccnc2)c2ccc(Cl)cc2Cl)cc1 (stereo not shown) [A06, 4-((1-(2,4-Dichlorophenyl)-2-(1H-imidazol-1-yl)ethoxy)methyl)-N-(4-(trifluoromethyl)phenyl)benzamide]	0.125 µg/mL (≈ 0.234 µM)	< 4.00	0.06 µg/mL (≈ 0.112 µM)	2 µg/mL (≈ 3.74 µM)	2 µg/mL (≈ 3.74 µM)	16 µg/mL (≈ 29.9 µM)	2 µg/mL (≈ 3.74 µM)	0.25 µg/mL (≈ 0.468 µM)	–	–	–
–	–	–	–	O=C(Nc1cccc(Cl)c1)c1ccc(COC(Cn2ccnc2)c2ccc(Cl)cc2Cl)cc1 (stereo not shown) [A09, N-(3-Chlorophenyl)-4-((1-(2,4-dichlorophenyl)-2-(1H-imidazol-1-yl)ethoxy)methyl)benzamide]	0.125 µg/mL (≈ 0.25 µM)	< 4.00	0.03 µg/mL (≈ 0.0599 µM)	2 µg/mL (≈ 3.99 µM)	4 µg/mL (≈ 7.99 µM)	8 µg/mL (≈ 16 µM)	8 µg/mL (≈ 16 µM)	0.25 µg/mL (≈ 0.499 µM)	–	–	–
–	–	–	–	O=C(Nc1ccc(F)cc1)c1ccc(COC(Cn2ccnc2)c2ccc(Cl)cc2Cl)cc1 (stereo not shown) [A02, 4-((1-(2,4-Dichlorophenyl)-2-(1H-imidazol-1-yl)ethoxy)methyl)-N-(4-fluorophenyl)benzamide]	0.5 µg/mL (≈ 1.03 µM)	< 4.00	0.125 µg/mL (≈ 0.258 µM)	4 µg/mL (≈ 8.26 µM)	4 µg/mL (≈ 8.26 µM)	8 µg/mL (≈ 16.5 µM)	8 µg/mL (≈ 16.5 µM)	0.25 µg/mL (≈ 0.516 µM)	–	–	–
> 360 min	94.9%	8.3 min	660 µL/min/mg	Clc1ccc(COC(Cn2ccnc2)c2ccc(Cl)cc2Cl)c(Cl)c1 (stereo not shown) [Miconazole, miconazole]	0.125 µg/mL (≈ 0.3 µM)	–	0.25 µg/mL (≈ 0.601 µM)	–	–	–	–	–	–	–	–
–	–	–	–	O=C(Nc1ccccc1)c1ccc(COC(Cn2ccnc2)c2ccc(Cl)cc2Cl)cc1 (stereo not shown) [A01, 4-((1-(2,4-dichlorophenyl)-2-(1H-imidazol-1-yl)ethoxy)methyl)-N-phenylbenzamide]	0.25 µg/mL (≈ 0.536 µM)	< 4.00	0.125 µg/mL (≈ 0.268 µM)	2 µg/mL (≈ 4.29 µM)	4 µg/mL (≈ 8.58 µM)	8 µg/mL (≈ 17.2 µM)	4 µg/mL (≈ 8.58 µM)	0.5 µg/mL (≈ 1.07 µM)	reduced to basic levels	–	–
–	–	–	–	O=C(Nc1ccc(Br)cc1)c1ccc(COC(Cn2ccnc2)c2ccc(Cl)cc2Cl)cc1 (stereo not shown) [A04, N-(4-Bromophenyl)-4-((1-(2,4-dichlorophenyl)-2-(1H-imidazol-1-yl)ethoxy)methyl)benzamide]	0.25 µg/mL (≈ 0.458 µM)	< 4.00	0.06 µg/mL (≈ 0.11 µM)	2 µg/mL (≈ 3.67 µM)	4 µg/mL (≈ 7.34 µM)	16 µg/mL (≈ 29.3 µM)	4 µg/mL (≈ 7.34 µM)	0.25 µg/mL (≈ 0.458 µM)	–	–	–
–	–	–	–	COc1ccc(NC(=O)c2ccc(COC(Cn3ccnc3)c3ccc(Cl)cc3Cl)cc2)cc1 (stereo not shown) [A07, 4-((1-(2,4-Dichlorophenyl)-2-(1H-imidazol-1-yl)ethoxy)methyl)-N-(4-methoxyphenyl)benzamide]	0.25 µg/mL (≈ 0.504 µM)	< 4.00	0.06 µg/mL (≈ 0.121 µM)	4 µg/mL (≈ 8.06 µM)	4 µg/mL (≈ 8.06 µM)	4 µg/mL (≈ 8.06 µM)	4 µg/mL (≈ 8.06 µM)	0.25 µg/mL (≈ 0.504 µM)	reduced to basic levels	–	–
–	–	–	–	O=C(Nc1ccc(Cl)cc1)c1ccc(COC(Cn2ccnc2)c2ccc(Cl)cc2Cl)cc1 (stereo not shown) [A03, N-(4-Chlorophenyl)-4-((1-(2,4-dichlorophenyl)-2-(1H-imidazol-1-yl)ethoxy)methyl)benzamide]	0.06 µg/mL (≈ 0.12 µM)	< 4.00	0.125 µg/mL (≈ 0.25 µM)	2 µg/mL (≈ 3.99 µM)	4 µg/mL (≈ 7.99 µM)	16 µg/mL (≈ 31.9 µM)	8 µg/mL (≈ 16 µM)	0.25 µg/mL (≈ 0.499 µM)	–	–	–
–	–	–	–	Cc1ccc(NC(=O)c2ccc(COC(Cn3ccnc3)c3ccc(Cl)cc3Cl)cc2)cc1 (stereo not shown) [A05, 4-((1-(2,4-Dichlorophenyl)-2-(1H-imidazol-1-yl)ethoxy)methyl)-N-(p-tolyl)benzamide]	0.25 µg/mL (≈ 0.52 µM)	< 4.00	0.03 µg/mL (≈ 0.0624 µM)	4 µg/mL (≈ 8.33 µM)	4 µg/mL (≈ 8.33 µM)	8 µg/mL (≈ 16.7 µM)	4 µg/mL (≈ 8.33 µM)	0.25 µg/mL (≈ 0.52 µM)	–	–	–
–	–	–	–	O=C(Nc1cccc2ccccc12)c1ccc(COC(Cn2ccnc2)c2ccc(Cl)cc2Cl)cc1 (stereo not shown) [A13, 4-((1-(2,4-Dichlorophenyl)-2-(1H-imidazol-1-yl)ethoxy)methyl)-N-(naphthalen-1-yl)benzamide]	64 µg/mL (≈ 124 µM)	< 4.00	8 µg/mL (≈ 15.5 µM)	1 µg/mL (≈ 1.94 µM)	8 µg/mL (≈ 15.5 µM)	64 µg/mL (≈ 124 µM)	128 µg/mL (≈ 248 µM)	1 µg/mL (≈ 1.94 µM)	–	2 to 64 µg/mL	–
–	–	–	–	O=C(Nc1cccc(F)c1)c1ccc(COC(Cn2ccnc2)c2ccc(Cl)cc2Cl)cc1 (stereo not shown) [A08, 4-((1-(2,4-Dichlorophenyl)-2-(1H-imidazol-1-yl)ethoxy)methyl)-N-(3-fluorophenyl)benzamide]	0.125 µg/mL (≈ 0.258 µM)	< 4.00	0.06 µg/mL (≈ 0.124 µM)	2 µg/mL (≈ 4.13 µM)	4 µg/mL (≈ 8.26 µM)	16 µg/mL (≈ 33 µM)	4 µg/mL (≈ 8.26 µM)	0.25 µg/mL (≈ 0.516 µM)	–	–	–
–	–	–	–	O=C(Nc1ccc2ccccc2c1)c1ccc(COC(Cn2ccnc2)c2ccc(Cl)cc2Cl)cc1 (stereo not shown) [A14, 4-((1-(2,4-Dichlorophenyl)-2-(1H-imidazol-1-yl)ethoxy)methyl)-N-(naphthalen-2-yl)benzamide]	32 µg/mL (≈ 62 µM)	< 4.00	32 µg/mL (≈ 62 µM)	16 µg/mL (≈ 31 µM)	16 µg/mL (≈ 31 µM)	64 µg/mL (≈ 124 µM)	8 µg/mL (≈ 15.5 µM)	16 µg/mL (≈ 31 µM)	–	2 to 64 µg/mL	–
–	–	–	–	N.N.[Cl][Pt][Cl] [cis-Pt, reference compound]	–	–	–	–	–	–	–	–	–	–	4.11
–	–	–	–	O=C(Nc1ccc2[nH]ccc2c1)c1ccc(COC(Cn2ccnc2)c2ccc(Cl)cc2Cl)cc1 (stereo not shown) [A15, 4-((1-(2,4-Dichlorophenyl)-2-(1H-imidazol-1-yl)ethoxy)methyl)-N-(1H-indol-5-yl)benzamide]	128 µg/mL (≈ 253 µM)	< 4.00	128 µg/mL (≈ 253 µM)	8 µg/mL (≈ 15.8 µM)	128 µg/mL (≈ 253 µM)	> 128 µg/mL	128 µg/mL (≈ 253 µM)	8 µg/mL (≈ 15.8 µM)	–	–	–
–	–	–	–	O=C(Nc1cccc(Br)c1)c1ccc(COC(Cn2ccnc2)c2ccc(Cl)cc2Cl)cc1 (stereo not shown) [A10, N-(3-Bromophenyl)-4-((1-(2,4-dichlorophenyl)-2-(1H-imidazol-1-yl)ethoxy)methyl)benzamide]	0.125 µg/mL (≈ 0.229 µM)	< 4.00	0.25 µg/mL (≈ 0.458 µM)	2 µg/mL (≈ 3.67 µM)	8 µg/mL (≈ 14.7 µM)	16 µg/mL (≈ 29.3 µM)	8 µg/mL (≈ 14.7 µM)	0.25 µg/mL (≈ 0.458 µM)	–	–	–
–	–	–	–	O=C(Nc1ccc2cccnc2c1)c1ccc(COC(Cn2ccnc2)c2ccc(Cl)cc2Cl)cc1 (stereo not shown) [A12, 4-((1-(2,4-Dichlorophenyl)-2-(1H-imidazol-1-yl)ethoxy)methyl)-N-(quinolin-7-yl)benzamide]	4 µg/mL (≈ 7.73 µM)	< 4.00	8 µg/mL (≈ 15.5 µM)	8 µg/mL (≈ 15.5 µM)	8 µg/mL (≈ 15.5 µM)	8 µg/mL (≈ 15.5 µM)	4 µg/mL (≈ 7.73 µM)	2 µg/mL (≈ 3.87 µM)	–	2 to 64 µg/mL	–

From paper PMC11962866 (RSC Advances, 2025)
